One block for each molecule: values may come before it.
Key:
[1] = target: hKHK-C (Homo sapiens (Human), UniProt P50053); experiment: Experiment of inhibitory activity against KHK in vitro (ADP-glo), hKHKc; assay type: biochemical; conditions: purified hKHK-C, 50 mM fructose, 0.2 mM ATP
Procedure: (§1) With the involvement of ATP, fructokinase phosphorylates fructose to produce fructose-1-phosphate and ADP. In this experiment, the effect of the compound on the activity of fructokinase was determined by measuring the amount of ADP produced in the process. Test compound stocks were prepared in DMSO. Before use, the stocks were 3-fold serially diluted with assay buffers (25 mM HEPES, 300 mM KCl, 10 mM MgCl2, 10 mM CaCl2), pH 7.0) to 5-fold the final concentration tested, and the DMSO content was adjusted to 1%. In a 384-well plate, the test compound was added to achieve a final concentration of 7.6 nM to 100 μM (assay buffers containing 1% DMSO were added to background and control wells). 5 ng/μL purified hKHK-C (assay buffers were added to background wells), 50 mM fructose and 0.2 mM ATP were added to reach a total volume of 10 μL and reacted at room temperature for 30 min. After the reaction was completed, 10 μL of ADP-glo (promega) was added and mixed uniformly, and the plate was incubated at room temperature for 40 min. Then the ADP-glo was added again, mixed uniformly and reacted for 40 min. The spontaneous luminescence intensity was measured using an Envision microplate reader. The inhibition rate of the compound against […] was calculated using the following formula,
(§2) [formula] • wherein • RLUZPE=luminescence intensity of control well • RLUblank=luminescence intensity of background well • RLUcpd=luminescence intensity of test compound well
(§3) A curve of inhibition rate (y-axis) versus compound concentration (x-axis) was fitted by logarithmic (inhibitor) and normalized response (variable slope) in GraphPad Prism, and EC50 was calculated.

[2] = Pharmacokinetic experiment in rats; assay type: in vivo, SD rats
Procedure: 2.1 Experimental animals: Male SD rats, about 220 g, 6-8 weeks old, 6 rats/compound, purchased from Hunan SJA Laboratory Animal Co., Ltd.
2.2 Experimental design: On the day of the experiment, 6 SD rats were randomly grouped according to their body weight. The animals were fasted with water available for 12 to 14 h one day before the administration, and were fed 4 h after the administration.
(§4) Vehicle for intravenous administration: 5% DMA+5% Solutol+90% Saline; Vehicle for intragastric administration: 0.5% MC
(§5) Before and after the administration, 0.15 mL of blood was taken from the orbit of the animals under isoflurane anaesthesia and placed in an EDTAK2 centrifuge tube. The blood was centrifuged at 5000 rpm and 4° C. for 10 min to collect plasma. Blood sampling time points for the intravenous administration group: 0, 5 min, 15 min, 30 min, 1 h, 2 h, 4 h, 6 h, 8 h, and 24 h; and blood sampling time points for the intragastric administration group: 0, 5 min, 15 min, 30 min, 1 h, 2 h, 4 h, 6 h, 8 h, and 24 h. Before analysis and detection, all samples were stored at −80° C.

[3] = Pharmacokinetic experiment in mice; assay type: in vivo, ICR mice
Procedure: 3.1 Experimental animals: male ICR mice, about 22 g, 6-8 weeks old, 18 mice/compound, purchased from Hunan SJA Laboratory Animal Co., Ltd.
3.2 Experimental design: On the day of the experiment, 18 ICR mice were randomly grouped according to their body weight. The animals were fasted with water available for 12 to 14 h one day before the administration, and were fed 4 h after the administration.
as §4
as §5, with “0.08” for “0.15”

[4] = target: CYP3A4 (Homo sapiens (Human), UniProt P08684); experiment: CYP450 enzyme inhibition test, mixed human liver microsomes; assay type: in vitro ADME; conditions: 0.05-50 μM
CYP3A4, sequence (P08684 whole entry): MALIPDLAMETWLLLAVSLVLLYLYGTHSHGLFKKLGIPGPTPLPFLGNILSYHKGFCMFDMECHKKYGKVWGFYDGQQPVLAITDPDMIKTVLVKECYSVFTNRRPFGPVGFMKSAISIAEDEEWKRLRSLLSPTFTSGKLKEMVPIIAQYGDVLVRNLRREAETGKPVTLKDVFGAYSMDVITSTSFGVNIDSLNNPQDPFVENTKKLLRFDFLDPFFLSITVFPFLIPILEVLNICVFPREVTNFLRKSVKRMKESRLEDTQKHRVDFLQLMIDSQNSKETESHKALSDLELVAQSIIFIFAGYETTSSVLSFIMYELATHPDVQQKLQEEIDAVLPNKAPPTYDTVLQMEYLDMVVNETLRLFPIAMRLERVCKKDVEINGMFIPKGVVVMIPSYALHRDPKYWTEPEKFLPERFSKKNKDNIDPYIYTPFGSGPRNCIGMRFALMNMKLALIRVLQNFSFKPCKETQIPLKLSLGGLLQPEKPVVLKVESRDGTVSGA

[5] = target: CYP2D6 (Homo sapiens (Human), UniProt P10635); experiment: as above; assay type: in vitro ADME; conditions: 0.05-50 μM
CYP2D6, sequence (P10635 whole entry): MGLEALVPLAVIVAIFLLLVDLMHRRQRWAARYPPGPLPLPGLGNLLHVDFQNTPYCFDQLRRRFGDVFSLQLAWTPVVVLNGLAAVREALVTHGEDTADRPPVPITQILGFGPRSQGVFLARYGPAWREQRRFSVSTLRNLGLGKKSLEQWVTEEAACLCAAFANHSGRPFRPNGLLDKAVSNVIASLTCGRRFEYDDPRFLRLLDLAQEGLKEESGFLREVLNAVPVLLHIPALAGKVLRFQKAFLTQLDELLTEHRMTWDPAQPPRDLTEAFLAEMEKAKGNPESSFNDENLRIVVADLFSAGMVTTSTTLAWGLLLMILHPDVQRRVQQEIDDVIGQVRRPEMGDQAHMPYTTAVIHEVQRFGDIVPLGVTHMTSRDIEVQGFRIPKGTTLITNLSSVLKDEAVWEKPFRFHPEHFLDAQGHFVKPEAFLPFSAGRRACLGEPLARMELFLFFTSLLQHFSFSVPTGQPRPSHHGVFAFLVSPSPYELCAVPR

[6] = target: hKHKa (Homo sapiens (Human), UniProt P50053); experiment: Experiment of inhibitory activity against KHK in vitro (ADP-glo), hKHKa; assay type: biochemical
hKHKa, sequence (P50053 other isoform, or with tags, fused parts or gaps): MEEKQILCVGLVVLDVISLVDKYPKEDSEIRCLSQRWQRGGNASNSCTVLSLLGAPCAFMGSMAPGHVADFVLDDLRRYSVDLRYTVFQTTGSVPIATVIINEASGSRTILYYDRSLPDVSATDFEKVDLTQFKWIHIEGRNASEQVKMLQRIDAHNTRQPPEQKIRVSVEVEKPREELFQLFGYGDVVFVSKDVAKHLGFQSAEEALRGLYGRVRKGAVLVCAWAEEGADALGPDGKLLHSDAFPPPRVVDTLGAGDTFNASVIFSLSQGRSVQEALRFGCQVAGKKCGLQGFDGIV
Procedure: [The source words this procedure for another variant and reports this variant under the same test.] as §1, §2, §3

[7] = target: rKHKc (Rattus norvegicus (Rat), UniProt Q02974); experiment: Experiment of inhibitory activity against KHK in vitro (ADP-glo), rKHKc; assay type: biochemical
rKHKc, sequence (Q02974 whole entry): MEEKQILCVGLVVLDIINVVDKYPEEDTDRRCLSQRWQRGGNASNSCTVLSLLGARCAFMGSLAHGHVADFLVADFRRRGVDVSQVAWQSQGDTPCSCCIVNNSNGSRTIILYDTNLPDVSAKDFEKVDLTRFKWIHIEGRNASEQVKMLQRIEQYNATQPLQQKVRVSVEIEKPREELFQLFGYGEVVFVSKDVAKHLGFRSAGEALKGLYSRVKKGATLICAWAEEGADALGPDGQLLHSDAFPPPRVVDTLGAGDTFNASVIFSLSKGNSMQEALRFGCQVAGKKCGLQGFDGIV
Procedure: [The source words this procedure for another species and reports this species under the same test.] as §1, with “5 ng/μL purified hKHK-C (assay buffers were added to background wells), 50 mM fructose and 0.2 mM ATP were added to reach a total volume of 10 μL and reacted at room temperature for 30 min. After the reaction was completed, 10 μL of ADP-glo (promega) was added and mixed uniformly, and the plate was incubated at room temperature for 40 min. Then the ADP-glo was added again, mixed uniformly and reacted for 40 min.” left out
as §2, §3

[8] = target: mKHKc (Mus musculus (Mouse), UniProt P97328); experiment: Experiment of inhibitory activity against KHK in vitro (ADP-glo), mKHKc; assay type: biochemical
mKHKc, sequence (P97328 whole entry): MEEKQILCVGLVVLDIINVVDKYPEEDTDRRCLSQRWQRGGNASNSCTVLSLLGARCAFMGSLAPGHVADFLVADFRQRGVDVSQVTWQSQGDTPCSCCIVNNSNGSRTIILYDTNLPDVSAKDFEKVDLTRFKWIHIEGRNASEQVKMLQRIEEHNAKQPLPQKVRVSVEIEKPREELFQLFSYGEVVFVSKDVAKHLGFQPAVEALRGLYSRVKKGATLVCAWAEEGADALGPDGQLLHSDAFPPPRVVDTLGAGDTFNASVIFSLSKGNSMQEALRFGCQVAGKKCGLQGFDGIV
Procedure: [The source words this procedure for another species and reports this species under the same test.] as §1, with “5 ng/μL purified hKHK-C (assay buffers were added to background wells), 50 mM fructose and 0.2 mM ATP were added to reach a total volume of 10 μL and reacted at room temperature for 30 min. After the reaction was completed, 10 μL of ADP-glo (promega) was added and mixed uniformly, and the plate was incubated at room temperature for 40 min. Then the ADP-glo was added again, mixed uniformly and reacted for 40 min.” left out
as §2, §3

hKHK-C, sequence (P50053 whole entry): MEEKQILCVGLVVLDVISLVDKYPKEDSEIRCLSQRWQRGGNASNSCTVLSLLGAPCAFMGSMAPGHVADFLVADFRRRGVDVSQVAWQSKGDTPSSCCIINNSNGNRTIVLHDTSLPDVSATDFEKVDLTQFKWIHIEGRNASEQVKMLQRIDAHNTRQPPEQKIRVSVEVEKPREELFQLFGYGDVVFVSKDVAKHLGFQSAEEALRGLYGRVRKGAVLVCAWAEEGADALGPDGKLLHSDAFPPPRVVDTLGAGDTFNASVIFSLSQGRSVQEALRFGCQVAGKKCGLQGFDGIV

Molecule: 2-((1R,5S,6S)-3-(7,7-difluoro-2-((S)-2-(trifluoromethyl)azetidin-1-yl)-6,7-dihydro-5H-cyclopenta[d]pyrimidin-4-yl)-3-azabicyclo[3.1.1]heptan-6-yl)acetic acid [Isomer 2 of compound 20]
EC50 [1]: 49.8 nM
F ([2]; i.g. 5 mg/kg): 111%
AUC0-t ([2]; plasma, i.g. 5 mg/kg): 64058 ng·h/mL
AUC0-t ([2]; plasma, i.v. 1 mg/kg): 11592 ng·h/mL
CL ([2]; plasma, i.v. 1 mg/kg): 1.35 mL/min/kg
Vdss ([2]; plasma, i.v. 1 mg/kg): 0.568 L/kg
F ([3]; i.g. 3 mg/kg): 87.2%
AUC0-t ([3]; plasma, i.g. 3 mg/kg): 4807 ng·h/mL
AUC0-t ([3]; plasma, i.v. 1 mg/kg): 1838 ng·h/mL
CL ([3]; plasma, i.v. 1 mg/kg): 8.84 mL/min/kg
Vdss ([3]; plasma, i.v. 1 mg/kg): 0.977 L/kg
IC50 [4]: > 50000 nM
IC50 [5]: > 50000 nM

EC50 [1]: 58.6 nM
EC50 [6]: 59.7 nM
Molecule: C[C@H]1CCN1c1nc(N2CCC(CC(=O)O)C2)c2c(c1C#N)C(F)(F)CC2 (single isomer, unassigned) [Isomer 1 of compound 8]

Molecule: C[C@H]1CCN1c1nc(N2C[C@H]3C[C@@H](C2)[C@@H]3CC(=O)O)c2c(n1)C(F)(F)CCC2 (single isomer, unassigned; isomer 2) [Isomer 2 of compound 3]
EC50 [1]: 37.4 nM
EC50 [6]: 51.8 nM
EC50 [7]: 146 nM
EC50 [8]: 134 nM

Molecule: C[C@H]1CCN1c1nc(N2C[C@H]3C[C@@H](C2)[C@@H]3CC(=O)O)c2c(n1)C(F)(F)CC2 (single isomer, unassigned; isomer 2) [Isomer 2 of compound 4]
EC50 [1]: 19.4 nM

Molecule: O=C(O)C[C@H]1[C@@H]2C[C@H]1CN(c1nc(N3CC[C@H]3C(F)F)nc3c1CCC3(F)F)C2 (single isomer, unassigned; isomer 2) [Isomer 2 of compound 19]
EC50 [1]: 60.6 nM

EC50 [1]: 36.5 nM
EC50 [6]: 35.2 nM
Molecule: C[C@H]1CCN1c1nc(N2CC(CC(=O)O)C2)c2c(c1C#N)C(F)(F)CC2 [Compound 7, (S)-2-(1-(4-cyano-5,5-difluoro-3-(2-methylazetidin-1-yl)-6,7-dihydro-5H-cyclopenta[c]pyridin-1-yl)azetidin-3-yl)acetic acid]

Molecule: [2H]C([2H])([2H])[C@H]1CCN1c1nc(N2C[C@H]3C[C@@H](C2)C3CC(=O)O)c2c(n1)C(F)(F)CC2 (stereo partly drawn) [Compound 16, 2-((1R,5S,6R)-3-(7,7-difluoro-2-((S)-2-(methyl-d3)azetidin-1-yl)-6,7-dihydro-5H-cyclopenta[d]pyrimidin-4-yl)-3-azabicyclo[3.1.1]heptan-6-yl)acetic acid]
EC50 [1]: 37.7 nM

EC50 [1]: 52.7 nM
Molecule: [2H]C([2H])([2H])[C@H]1CCN1c1nc(N2CC(CC(=O)O)C2)c2c(c1C#N)C(F)(F)CC2 [Compound 18, (S)-2-(1-(4-cyano-5,5-difluoro-3-(2-(methyl-d3)azetidin-1-yl)-6,7-dihydro-5H-cyclopenta[c]pyridin-1-yl)azetidin-3-yl)acetic acid]
